Measured values from publication doi:10.1101/2024.08.19.608619, “Discovery of potent SARS-CoV-2 nsp3 macrodomain inhibitors uncovers lack of translation to cellular antiviral response” (bioRxiv, 2024).
Values joined by “and” are separate entries in the source; they are usually repeats but may differ in a detail not shown here. Identical values can stand only once.

Tests used:
M1 (h) = biological target: T1, M1 (h) (Homo sapiens, UniProt P11229); experiment: In vitro CEREP profiling, M1 (h) (antagonist radioligand); type: binding; conditions: test compound concentration 10 uM
T1 construct: purchased Eurofins Cerep (SafetyScreen44), recognised from the panel format
T1 sequence (P11229 1-460): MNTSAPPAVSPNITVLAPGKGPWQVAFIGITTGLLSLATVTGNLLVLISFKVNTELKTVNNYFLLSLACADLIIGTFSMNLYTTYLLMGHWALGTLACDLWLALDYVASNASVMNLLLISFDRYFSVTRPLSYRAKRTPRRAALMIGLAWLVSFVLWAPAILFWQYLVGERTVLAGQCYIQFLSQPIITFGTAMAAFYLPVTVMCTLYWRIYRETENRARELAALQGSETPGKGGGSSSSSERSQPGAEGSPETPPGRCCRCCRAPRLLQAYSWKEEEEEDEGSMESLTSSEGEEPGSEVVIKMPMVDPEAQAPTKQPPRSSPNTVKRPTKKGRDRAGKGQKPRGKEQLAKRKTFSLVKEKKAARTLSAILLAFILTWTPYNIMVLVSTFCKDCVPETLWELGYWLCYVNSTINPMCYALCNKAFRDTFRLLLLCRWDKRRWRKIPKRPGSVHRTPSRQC
Description: (§1) Supplement media-1.zip/Safety_Panel_Profile.csv, table | column: perc_inhibition

[1] = In vitro rat SD liver microsomal stability; type: in vitro ADME
Description: Supplement media-1.zip/Hepatic_Microsomal_Stability.csv, table | column: clint; t_half

V1a (h) = biological target: T2, V1a (h) (Homo sapiens, UniProt P37288); experiment: In vitro CEREP profiling, V1a (h) (agonist radioligand); type: binding; conditions: test compound concentration 10 uM
T2 construct: purchased Eurofins Cerep (SafetyScreen44), recognised from the panel format
Description: as §1

dopamine transporter (h) = biological target: T3, dopamine transporter (h) (Homo sapiens, UniProt Q01959); experiment: In vitro CEREP profiling, dopamine transporter (h) (antagonist radioligand); type: binding; conditions: test compound concentration 10 uM
T3 construct: purchased Eurofins Cerep (SafetyScreen44), recognised from the panel format
Description: as §1

KV channel = experiment: In vitro CEREP profiling, KV channel (antagonist radioligand); type: binding; conditions: test compound concentration 10 uM
Description: as §1

CCK1 (CCKA) (h) = biological target: T4, CCK1 (CCKA) (h) (Homo sapiens, UniProt P32238); experiment: In vitro CEREP profiling, CCK1 (CCKA) (h) (agonist radioligand); type: binding; conditions: test compound 10 uM
T4 construct: purchased Eurofins Cerep (SafetyScreen44), recognised from the panel format
T4 sequence (P32238 1-428): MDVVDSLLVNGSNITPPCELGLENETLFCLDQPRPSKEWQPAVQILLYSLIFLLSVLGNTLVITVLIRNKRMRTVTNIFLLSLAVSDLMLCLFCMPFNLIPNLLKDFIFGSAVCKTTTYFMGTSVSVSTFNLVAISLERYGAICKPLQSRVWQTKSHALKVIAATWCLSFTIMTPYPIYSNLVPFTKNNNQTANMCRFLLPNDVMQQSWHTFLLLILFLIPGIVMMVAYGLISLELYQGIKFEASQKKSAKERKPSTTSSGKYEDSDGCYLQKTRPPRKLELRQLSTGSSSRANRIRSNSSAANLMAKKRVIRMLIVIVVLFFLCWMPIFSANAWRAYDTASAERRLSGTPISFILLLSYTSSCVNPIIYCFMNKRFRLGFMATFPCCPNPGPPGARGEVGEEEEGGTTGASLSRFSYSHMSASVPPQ
Description: as §1

MERS-CoV = experiment: microbe, parasite or virus in culture; type: cell-based; conditions: Vero E6/TMPRSS2 MERS-CoV antiviral effect with P-gp inhibitor; for perc_max_measured: maximum measured response of dose series; for perc_min_measured: minimum measured response of dose series; for EC50: read-out: ec50; for EC90: read-out: ec90
mu (MOP) (h) = biological target: T5, mu (MOP) (h) (Homo sapiens, UniProt P35372); experiment: In vitro CEREP profiling, mu (MOP) (h) (agonist radioligand); type: binding; conditions: test compound concentration 10 uM
T5 construct: purchased Eurofins Cerep (SafetyScreen44), recognised from the panel format
Description: as §1

[2] = In vitro rat hepatocyte stability; type: in vitro ADME
Description: Supplement media-1.zip/Hepatocyte_Stability.csv, table | column: clint; t_half

in vitro = conditions: human, hela-ace2 cells, 50.0
5-HT1A (h) = biological target: T6, 5-HT1A (h) (Homo sapiens, UniProt P08908); experiment: In vitro CEREP profiling, 5-HT1A (h) (agonist radioligand); type: binding; conditions: test compound concentration 10 uM
T6 construct: purchased Eurofins Cerep (SafetyScreen44), recognised from the panel format
T6 sequence (P08908 1-422): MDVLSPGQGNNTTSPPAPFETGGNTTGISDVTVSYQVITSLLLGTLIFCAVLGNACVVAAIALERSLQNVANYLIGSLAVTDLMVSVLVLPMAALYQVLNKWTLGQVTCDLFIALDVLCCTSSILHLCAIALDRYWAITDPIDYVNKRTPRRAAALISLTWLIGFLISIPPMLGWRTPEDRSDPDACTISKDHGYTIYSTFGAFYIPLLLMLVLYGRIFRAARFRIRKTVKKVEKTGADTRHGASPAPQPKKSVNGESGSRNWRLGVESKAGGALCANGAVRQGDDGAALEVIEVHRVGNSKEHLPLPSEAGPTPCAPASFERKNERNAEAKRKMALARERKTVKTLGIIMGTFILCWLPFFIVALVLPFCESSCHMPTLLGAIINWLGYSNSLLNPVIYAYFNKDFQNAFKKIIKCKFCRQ
Description: as §1

[3] = tested on: SARS-CoV-2, isolate USA-WA1/2020; experiment: microbe, parasite or virus in culture; type: cell-based; conditions: HeLa-ACE2 SARS-CoV-2 antiviral effect without P-gp inhibitor; for EC50: read-out: ec50; for EC90: read-out: ec90
human CHRM2 (M2) = biological target: T7, human CHRM2 (M2) (Homo sapiens, UniProt P08172); experiment: Eurofins CEREP panel, M2; type: binding; conditions: M2 (h) (antagonist radioligand); test compound concentration 10 uM
T7 construct: purchased Eurofins Cerep (SafetyScreen44), recognised from the panel format
T7 sequence (P08172 1-466): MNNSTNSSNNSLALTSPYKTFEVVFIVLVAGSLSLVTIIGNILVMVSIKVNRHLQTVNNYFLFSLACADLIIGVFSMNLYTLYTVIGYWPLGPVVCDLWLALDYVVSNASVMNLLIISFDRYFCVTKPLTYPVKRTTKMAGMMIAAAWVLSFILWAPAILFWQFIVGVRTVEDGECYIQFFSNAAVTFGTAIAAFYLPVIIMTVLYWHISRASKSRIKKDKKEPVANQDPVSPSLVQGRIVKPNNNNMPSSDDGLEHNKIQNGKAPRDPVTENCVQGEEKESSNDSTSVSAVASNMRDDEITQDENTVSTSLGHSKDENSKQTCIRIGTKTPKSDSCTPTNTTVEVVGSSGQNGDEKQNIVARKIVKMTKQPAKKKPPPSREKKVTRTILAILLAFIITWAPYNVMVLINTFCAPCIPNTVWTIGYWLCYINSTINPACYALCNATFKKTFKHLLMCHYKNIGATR

[4] = maximum measured response of dose series
[5] = minimum measured response of dose series

T3 sequence (Q01959 whole entry): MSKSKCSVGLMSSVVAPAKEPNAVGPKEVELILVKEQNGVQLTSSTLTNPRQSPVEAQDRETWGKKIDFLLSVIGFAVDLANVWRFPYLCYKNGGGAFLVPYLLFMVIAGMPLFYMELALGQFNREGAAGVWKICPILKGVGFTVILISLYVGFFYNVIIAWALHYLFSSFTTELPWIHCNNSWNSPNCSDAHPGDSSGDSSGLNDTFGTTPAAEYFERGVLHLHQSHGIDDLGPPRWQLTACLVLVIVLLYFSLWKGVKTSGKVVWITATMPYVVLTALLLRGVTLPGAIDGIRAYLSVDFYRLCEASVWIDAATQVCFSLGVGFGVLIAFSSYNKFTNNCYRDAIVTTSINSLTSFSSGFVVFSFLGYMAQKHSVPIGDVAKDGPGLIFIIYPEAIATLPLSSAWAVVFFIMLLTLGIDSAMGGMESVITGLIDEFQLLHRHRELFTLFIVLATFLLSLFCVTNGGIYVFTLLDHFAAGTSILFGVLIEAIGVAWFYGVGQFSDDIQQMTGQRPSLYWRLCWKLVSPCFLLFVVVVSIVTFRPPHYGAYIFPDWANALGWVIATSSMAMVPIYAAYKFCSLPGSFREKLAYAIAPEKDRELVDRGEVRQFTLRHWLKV
T5 sequence (P35372 whole entry): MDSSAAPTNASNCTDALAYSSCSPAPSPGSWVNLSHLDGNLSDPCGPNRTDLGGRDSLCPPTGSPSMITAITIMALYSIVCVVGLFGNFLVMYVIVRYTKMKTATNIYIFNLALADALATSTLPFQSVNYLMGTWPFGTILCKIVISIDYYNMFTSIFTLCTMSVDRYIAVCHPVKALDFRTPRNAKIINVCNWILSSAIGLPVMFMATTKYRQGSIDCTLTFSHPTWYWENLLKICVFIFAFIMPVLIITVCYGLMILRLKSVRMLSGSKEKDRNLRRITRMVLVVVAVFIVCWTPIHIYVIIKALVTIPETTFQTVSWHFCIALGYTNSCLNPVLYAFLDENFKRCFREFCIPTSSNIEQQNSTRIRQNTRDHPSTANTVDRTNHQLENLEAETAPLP
T2 sequence (P37288 whole entry): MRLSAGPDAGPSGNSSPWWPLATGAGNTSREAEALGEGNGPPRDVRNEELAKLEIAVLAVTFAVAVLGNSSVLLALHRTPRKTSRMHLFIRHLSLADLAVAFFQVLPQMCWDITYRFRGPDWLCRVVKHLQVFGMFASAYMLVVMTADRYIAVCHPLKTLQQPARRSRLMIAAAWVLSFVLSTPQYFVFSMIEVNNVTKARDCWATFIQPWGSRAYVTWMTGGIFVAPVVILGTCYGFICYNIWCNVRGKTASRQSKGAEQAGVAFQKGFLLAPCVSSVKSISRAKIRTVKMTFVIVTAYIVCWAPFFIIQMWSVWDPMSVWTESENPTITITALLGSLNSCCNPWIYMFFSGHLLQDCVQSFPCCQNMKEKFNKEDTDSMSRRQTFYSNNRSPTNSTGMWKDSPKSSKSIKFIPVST

For `C[C@H](C(=O)O)[C@@H](NC(=O)c1ncnc2[nH]ccc12)c1ccc(Br)cc1` [ASAP-0014722], the “perc_inhibition (% inhibition of the binding of a ligand specific for each target)” value (M1 (h)) was -1%, the clint [1] was < 5.0 µL/min/mg and the t_half [1] was > 139.0 min. For the same molecule, the “perc_inhibition (% inhibition of the binding of a ligand specific for each target)” value (V1a (h)) was 62%, the “perc_inhibition (% inhibition of the binding of a ligand specific for each target)” value (dopamine transporter (h)) was 4% and the “perc_inhibition (% inhibition of the binding of a ligand specific for each target)” value (KV channel) was 0%. The “perc_inhibition (% inhibition of the binding of a ligand specific for each target)” value (CCK1 (CCKA) (h)) was 6%, the perc_max_measured (MERS-CoV) was 106.305% and 132.117% and the perc_min_measured (MERS-CoV) was 63.318% and 92.538%. The EC50 (MERS-CoV) was > 5 µM, the EC90 (MERS-CoV) was > 5 µM and the “perc_inhibition (% inhibition of the binding of a ligand specific for each target)” value (mu (MOP) (h)) was -10%. The clint [2] was < 3.0 uL/min/1E6 cells, the t_half [2] was > 231.0 min and the CC50 at 24 h (in vitro) was > 20 µM. For the same molecule, the “perc_inhibition (% inhibition of the binding of a ligand specific for each target)” value (5-HT1A (h)) was 2%, the perc_max_measured [3, 4] was 104.611% and the perc_min_measured ([3]; minimum measured response) was 91.919%. For the same molecule, the perc_min_measured [3, 5] was 71.809%, the EC50 [3] was > 20 µM and the EC90 [3] was > 20 µM. For the same molecule, the “perc_inhibition (% inhibition of the binding of a ligand specific for each target)” value (human CHRM2 (M2)) was -4%.

For `COc1ccc([C@H](Cc2nnn[nH]2)NC(=O)c2ncnc3[nH]ccc23)cc1` [ASAP-0015381], the “perc_inhibition (% inhibition of the binding of a ligand specific for each target)” value (M1 (h)) was -4%, the clint [1] was < 5.0 µL/min/mg and the t_half [1] was > 139.0 min. The “perc_inhibition (% inhibition of the binding of a ligand specific for each target)” value (V1a (h)) was 5%, the “perc_inhibition (% inhibition of the binding of a ligand specific for each target)” value (dopamine transporter (h)) was 7% and the “perc_inhibition (% inhibition of the binding of a ligand specific for each target)” value (KV channel) was -1%. The “perc_inhibition (% inhibition of the binding of a ligand specific for each target)” value (CCK1 (CCKA) (h)) was -5%, the perc_max_measured (MERS-CoV) was 110.958% and 111.344% and the perc_min_measured (MERS-CoV) was 85.891% and 86.764%. For the same molecule, the EC50 (MERS-CoV) was > 5 µM, the EC90 (MERS-CoV) was > 5 µM and the “perc_inhibition (% inhibition of the binding of a ligand specific for each target)” value (mu (MOP) (h)) was -3%. The clint [2] was < 3.0 uL/min/1E6 cells, the t_half [2] was > 231.0 min and the CC50 at 24 h (in vitro) was > 20 µM. The “perc_inhibition (% inhibition of the binding of a ligand specific for each target)” value (5-HT1A (h)) was 5%, the perc_max_measured ([3]; maximum measured response) was 102.013% and the perc_max_measured [3, 4] was 116.588%. For the same molecule, the perc_min_measured ([3]; minimum measured response) was 88.847%, the perc_min_measured [3, 5] was 75.952% and the EC50 [3] was > 20 µM. For the same molecule, the EC90 [3] was > 20 µM and the “perc_inhibition (% inhibition of the binding of a ligand specific for each target)” value (human CHRM2 (M2)) was -12%.
